Where two headings read alike, the source gives them in different places.
Columns and labels:
α4β4 receptor = details: read-out: IC50 inhibiting binding of [3H]epibatidine; cited from earlier work
[1] = target: nicotinic (α4)2(β2)3 receptors; details: cited from earlier work
α4β2 and α4β4 nAChRs = details: range over both agonists and both receptors; cited from earlier work
[2] = target: α4 with wild-type β2 nAChR, (α4)2(β2)3 (Homo sapiens, UniProt P17787+P43681); assay: Two-electrode voltage clamp of receptors expressed in Xenopus oocytes; assay type: cell-based
α4 with β2S113R nAChR = α4 with β2S113R nAChR (Homo sapiens, UniProt P17787+P43681, S138R); assay: as above; assay type: cell-based
α4 with β2F119Q nAChR = α4 with β2F119Q nAChR (Homo sapiens, UniProt P17787+P43681, F144Q); assay: as above; assay type: cell-based
human α4β2 nAChRs = human α4β2 nAChRs (Homo sapiens, UniProt P17787+P43681); assay: Photoaffinity labeling; assay type: binding; details: ∼1 nM probe, 254 nm, α4 or β2 subunit
rat α4β4 nAChRs = rat α4β4 nAChRs (Rattus norvegicus, UniProt P09483+P12392); assay type: binding
[3] = target: α4β2F119Q, α4β2S113R and wild-type (WT) hα4β2 receptors; design: species or system human; details: read-out: [3H]epibatidine binding affinities; range over α4β2F119Q, α4β2S113R and WT hα4β2 transiently expressed in HEK 293 cells
α4β2F119Q receptors = α4β2F119Q receptors (Homo sapiens, UniProt P17787+P43681, F144Q); assay type: binding; details: preincubation with 100 nM epibatidine
[4] = read-out: EC50 of activation, 5 oocytes

rat α4β4 nAChRs, sequence (P09483 31-630): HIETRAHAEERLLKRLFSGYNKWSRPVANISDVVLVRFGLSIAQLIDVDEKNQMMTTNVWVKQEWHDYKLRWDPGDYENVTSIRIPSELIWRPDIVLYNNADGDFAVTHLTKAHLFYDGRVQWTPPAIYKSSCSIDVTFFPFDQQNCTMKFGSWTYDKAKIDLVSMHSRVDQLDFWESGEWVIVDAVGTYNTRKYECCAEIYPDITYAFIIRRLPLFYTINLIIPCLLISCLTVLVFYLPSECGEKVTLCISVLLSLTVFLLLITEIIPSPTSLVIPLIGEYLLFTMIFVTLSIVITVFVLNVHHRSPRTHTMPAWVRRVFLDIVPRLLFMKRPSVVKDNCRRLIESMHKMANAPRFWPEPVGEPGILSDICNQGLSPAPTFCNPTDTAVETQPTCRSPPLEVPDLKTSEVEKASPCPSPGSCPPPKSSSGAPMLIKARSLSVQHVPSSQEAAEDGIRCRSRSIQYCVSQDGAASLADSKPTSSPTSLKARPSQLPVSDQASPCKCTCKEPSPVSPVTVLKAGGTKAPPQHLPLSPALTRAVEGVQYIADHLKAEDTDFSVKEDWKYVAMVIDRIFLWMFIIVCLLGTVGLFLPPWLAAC
rat α4β4 nAChRs, sequence (P12392 25-495): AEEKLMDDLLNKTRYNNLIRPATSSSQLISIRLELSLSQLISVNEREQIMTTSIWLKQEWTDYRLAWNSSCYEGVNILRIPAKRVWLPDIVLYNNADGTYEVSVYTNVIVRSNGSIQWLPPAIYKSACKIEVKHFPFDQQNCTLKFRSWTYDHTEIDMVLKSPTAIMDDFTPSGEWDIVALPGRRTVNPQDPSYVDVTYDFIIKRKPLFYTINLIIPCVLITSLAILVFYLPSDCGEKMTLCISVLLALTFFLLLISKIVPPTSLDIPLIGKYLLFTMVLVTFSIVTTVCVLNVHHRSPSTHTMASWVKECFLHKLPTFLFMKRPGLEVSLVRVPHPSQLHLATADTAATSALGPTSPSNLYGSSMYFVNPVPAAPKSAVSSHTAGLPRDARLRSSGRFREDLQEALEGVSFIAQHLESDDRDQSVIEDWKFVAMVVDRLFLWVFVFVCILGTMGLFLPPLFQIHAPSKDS
human α4β2 nAChRs, sequence (P17787 26-502): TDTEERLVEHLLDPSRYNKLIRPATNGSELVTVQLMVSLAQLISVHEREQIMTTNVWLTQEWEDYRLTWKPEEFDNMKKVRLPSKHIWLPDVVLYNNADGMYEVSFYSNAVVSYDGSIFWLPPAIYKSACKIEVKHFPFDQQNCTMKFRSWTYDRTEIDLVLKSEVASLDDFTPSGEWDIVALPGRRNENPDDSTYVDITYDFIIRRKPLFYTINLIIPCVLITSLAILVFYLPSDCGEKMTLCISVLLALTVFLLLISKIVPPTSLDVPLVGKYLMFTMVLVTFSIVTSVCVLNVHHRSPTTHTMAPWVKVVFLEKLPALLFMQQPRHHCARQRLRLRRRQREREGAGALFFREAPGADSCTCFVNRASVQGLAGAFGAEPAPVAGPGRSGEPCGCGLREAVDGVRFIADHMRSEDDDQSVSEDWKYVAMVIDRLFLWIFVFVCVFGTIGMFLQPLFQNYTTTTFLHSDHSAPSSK
human α4β2 nAChRs, sequence (P43681 29-627): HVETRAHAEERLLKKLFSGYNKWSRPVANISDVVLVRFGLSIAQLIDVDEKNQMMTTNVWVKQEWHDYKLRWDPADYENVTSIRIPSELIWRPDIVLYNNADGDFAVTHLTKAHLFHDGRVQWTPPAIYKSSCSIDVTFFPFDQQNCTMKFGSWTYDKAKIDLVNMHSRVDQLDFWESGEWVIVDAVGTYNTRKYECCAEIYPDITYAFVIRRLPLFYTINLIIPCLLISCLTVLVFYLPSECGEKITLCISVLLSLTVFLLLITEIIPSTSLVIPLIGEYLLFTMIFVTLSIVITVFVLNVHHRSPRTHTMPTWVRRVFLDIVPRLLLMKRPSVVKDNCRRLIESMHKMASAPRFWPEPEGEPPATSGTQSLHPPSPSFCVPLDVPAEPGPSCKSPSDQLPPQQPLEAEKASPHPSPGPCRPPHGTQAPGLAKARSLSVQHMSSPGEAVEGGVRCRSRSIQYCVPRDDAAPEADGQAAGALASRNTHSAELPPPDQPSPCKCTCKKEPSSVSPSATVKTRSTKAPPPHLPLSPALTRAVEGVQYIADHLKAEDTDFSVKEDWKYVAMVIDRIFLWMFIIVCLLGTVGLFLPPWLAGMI
α4 with β2S113R nAChR, sequence (P43681 29-627 limits assumed): as the sequence (P43681 29-627) above
α4 with β2S113R nAChR, sequence (P17787 26-502 S138R): as the sequence (P17787 26-502) above, with S113R counted along it
α4 with wild-type β2 nAChR, (α4)2(β2)3, sequence (P43681 29-627 limits assumed): as the sequence (P43681 29-627) above
α4 with wild-type β2 nAChR, (α4)2(β2)3, sequence (P17787 26-502): as the sequence (P17787 26-502) above
α4 with β2F119Q nAChR, sequence (P43681 29-627, stated change not applied): as the sequence (P43681 29-627) above
α4 with β2F119Q nAChR, sequence (P17787 26-502 F144Q): as the sequence (P17787 26-502) above, with F119Q counted along it
α4β2F119Q receptors, sequence (P43681 29-627, stated change not applied): as the sequence (P43681 29-627) above
α4β2F119Q receptors, sequence (P17787 26-502 F144Q): as the sequence (P17787 26-502) above, with F119Q counted along it

For `Cl.Cl.Ic1cncc(OC[C@@H]2CCN2)c1` [5I-A-85380, 5-iodo-A-85380 dihydrochloride], the IC50 (α4β4 receptor) is given as 24 nM, the EC50 [1] is given as ~10 nM and the maximal response ([1]; compared with ACh) is given as “larger than that for ACh itself”. The binding affinity (α4β2 and α4β4 nAChRs) was 0.062 to 24 nM, the EC50 [2, 4] was 23 ± 2 nM and the EC50 (α4 with β2S113R nAChR; read-out: EC50 of activation, 7 oocytes) was 30 ± 7 nM. It also gave an EC50 (α4 with β2F119Q nAChR; [4]) of 338 ± 77 nM.
In the case of `[125I]c1cncc(OCC2CCN2)c1` (stereo not shown) [5[^125I]A-85380], the pattern of photoincorporation (human α4β2 nAChRs) is reported as “very little if any photoincorporation” and the pattern of photoincorporation (rat α4β4 nAChRs; 1 nM probe, 254 nm, 30 or 15 min) is reported as “incorporated selectively into the β4 subunit”.
With `CC(=O)OCC[N+](C)(C)C` [ACh, Acetylcholine chloride] the “actual amplitude of the ACh response” value ([2]; 1 mM ACh, single oocyte trace) was -0.8 μA, the “actual amplitude of the ACh response” value (α4 with β2S113R nAChR; 1 mM ACh, single oocyte trace) was -3.3 μA and the “actual amplitude of the ACh response” value (α4 with β2F119Q nAChR; 1 mM ACh, single oocyte trace) was -0.03 μA.
`Clc1ccc(C2CC3CCC2N3)cn1` (stereo not shown) [[^3H]epibatidine] gave a Kd [3] of 0.4 to 0.7 nM.
For `Clc1ccc(C2CC3CCC2N3)cn1` (stereo not shown) [epibatidine], the “effect on [125I]epibatidine labeling in the β2F119Q subunit” value (α4β2F119Q receptors) was “completely eliminated labeling” and the “effect on labeling by radiolabeled agonist” value (rat α4β4 nAChRs) was “complete elimination of labeling”.
For `Ic1ccc(C2CC3CCC2N3)cn1` (stereo not shown) [iodoepibatidine], the binding affinity (α4β2 and α4β4 nAChRs) is given as 0.062 to 24 nM.
In the case of `CN1CCC[C@H]1c1cccnc1` [nicotine], the “effect on labeling by radiolabeled agonist” value (rat α4β4 nAChRs; 15 min preincubation with 100 μM nicotine or 100 nM epibatidine) is reported as “complete elimination of labeling” and the “reduction of [125I]epibatidine labeling of β4 subunit and β4′ fragment” value (rat α4β4 nAChRs; co-application of 100 μM nicotine, γ-counting of excised gel bands) is reported as > 50%.
With [^125I]epibatidine the pattern of photoincorporation (human α4β2 nAChRs) was “very little if any photoincorporation”.

Source: publication PMC2744590 (Biochimica et biophysica acta, 2009)
